Earlier results, collected in patent US9968621B2, “Parenteral compositions of celecoxib” (Dr. Reddy's Laboratories Ltd., priority 2014, dated 2018).

Conditions: after an oral dose

Time of peak plasma levels: approximately 3 hrs
Structure (SMILES): Cc1ccc(-c2cc(C(F)(F)F)nn2-c2ccc(S(N)(=O)=O)cc2)cc1 [Celecoxib, 4-[5-(4-methylphenyl)-3-(trifluoromethyl)-1H-pyrazol-1-yl] benzenesulfonamide]
